Experimental data as given in PMC6222316, “UPLC-MS/MS Method for the Determination of 14 Compounds in Rat Plasma and Its Application in a Pharmacokinetic Study of Orally Administered Xiaoyao Powder” (Molecules : A Journal of Synthetic Chemistry and Natural …, 2018).
Read-outs that look alike come from different tables or passages of the source.

Assay: Pharmacokinetic study of 14 compounds in rat plasma after oral administration of XYP (UPLC-MS/MS)
Assay type: in vivo, Sprague–Dawley rats
Set-up: Kel (elimination rate constant): unit not given here
Details: oral XYP 4 g/kg; for AUC(0-inf) / AUC(0-t) / Cmax / half-life / MRT last / MRT inf / Tmax: female, Sprague-Dawley; for MRT last: n = 6, read-out: MRT0–t; for MRT inf: n = 6, read-out: MRT0–∞; for Tmax: rat, plasma, po, 4 g/kg
Method: The validated UPLC-MS/MS method was successfully applied to the pharmacokinetic study of 14 compounds in rat plasma after the oral administration of XYP at a dose of 4 g/kg (8-fold the clinical dosage).
Quantitative analysis was conducted on a Waters® Micromass® Quattro Premier™ XE triple-quadrupole tandem mass spectrometer (Waters Corp., Milford, MA, USA). Chromatographic separation was performed on an ACQUITY UPLCTM BEH C18 column (1.7 µm, 50 × 2.1 mm; Waters Corp.) equipped with an ACQUITY UPLC C18 guard column. The column temperature was maintained at 35 °C. The mobile phase consisted of 0.1% formic acid in water (A) and acetonitrile (B). The total flow rate was 0.3 mL/min. Chromatographic separation was achieved using a 14.5-min gradient elution. The gradient conditions of the mobile phase were as follows: 0–4 min, 4–22% (B); 4–5 min, 22–27% (B); 5–10 min, 27–50% (B); and 10–14.5 min, 50–96% (B). The samples were kept at 4 °C in the auto-sampler, and the injection volume was 5 µL.
Methanol (1.5 mL), 10 μg/mL IS and 300 μL plasma was mixed, then vortexed for 1 min. After centrifuging at 14,000× g for 10 min, the supernatant was put into another centrifuge tube. The residue was vortexed with another 1.5 mL methanol and centrifuged again, and the two supernatants were combined and evaporated to dryness under a flow of nitrogen gas at 40 °C. The residue was then dissolved in 100 μL methanol and vortexed for 1 min. Finally, the vortexing and centrifugation process was again repeated, and 5 μL of the supernatant was injected into the UPLC-MS/MS system for analysis.
Twenty healthy female Sprague–Dawley rats (300 ± 20 g) were purchased from the Animal Safety Evaluation Center of Heilongjiang University of Chinese Medicine (Heilongjiang, China). All protocols for animal experiments were approved in accordance with the Regulations of Experimental Animal Administration issued by the State Commission of Science and Technology of the People’s Republic of China. The rats were kept under a light/dark cycle of 12 h, within the temperature range of 24 °C ± 2 °C to room temperature, and at a humidity of 50 ± 10%. All rats were fasted for 12 h before experimentation but were allowed to drink freely. XYP extract was dissolved in water, and the rats were administrated orally with 4 g/kg XYP. Blood samples were collected from the suborbital venous lexus at 0, 0.083, 0.17, 0.33, 0.50, 0.75, 1.0, 2.0, 4.0, 8.0, 12 and 24 h into 1.5-mL heparinized polythene tubes […]. The blood samples were immediately centrifuged at 4500 rpm for 10 min, and the plasma was stored at −80 °C until analysis. The pharmacokinetic parameters (Cmax, tmax, t1/2, Kel, AUC0–t, AUC0–∞, MRT0–t, MRT0–∞) were calculated with the software Winnolin 3.2.

[1] = mean ± SD, n = 6, read-out: tmax
[2] = read-out: tmax (time to maximum plasma concentration)

Row | SMILES | AUC(0-inf) (mean ± SD, n = 6) [ng·h/mL] | AUC(0-t) (mean ± SD, n = 6) [ng·h/mL] | Cmax (mean ± SD, n = 6) [ng/mL] | half-life (mean ± SD, n = 6) [min] | MRT last (mean ± SD) [h] | MRT inf (mean ± SD) [h] | Tmax [1] [min] | Kel (elimination rate constant) (mean ± SD, n = 6) | Tmax [2] [min] | time of first detection in plasma [min] | shape of plasma concentration-time curve | time of second maximal plasma concentration | t1/2 (mean ± SD, n = 6) [h]
1 | CC12CC(O)C3CC1(OC1OC(CO)C(O)C(O)C1O)C3(COC(=O)c1ccccc1)C(=O)O2 (centres unmarked) [Albiflorin, albiflorin] | 135 ± 65.6 | 128 ± 64.9 | 58.3 ± 27.5 | 427 ± 274 | 4.18 ± 1.58 | 6.34 ± 4.5 | 23.4 ± 5.4 | 0.13 ± 0.06 | – | – | – | – | –
2 | C=C1CCC[C@]2(C)C[C@@H]3OC(=O)C(C)=C3C[C@@H]12 [Atractylenolide II, atractylenolide II] | 70.2 ± 25.6 | 69.5 ± 25.7 | 22.5 ± 8.04 | 212 ± 72.6 | 4.15 ± 0.82 | 4.43 ± 0.98 | 38.4 ± 17.4 | 0.21 ± 0.07 | – | – | – | – | –
3 | C=C1CCC[C@]2(C)C[C@]3(O)OC(=O)C(C)=C3C[C@@H]12 [Atractylenolide III, atractylenolide III] | 1130 ± 487 | 1040 ± 497 | 230 ± 108 | 417 ± 159 | 6.23 ± 1.55 | 8.6 ± 3.13 | 40.2 ± 15.6 | 0.11 ± 0.05 | – | – | – | – | –
4 | COc1cc(/C=C/C(=O)O)ccc1O [Ferulic acid, ferulic acid] | 1610 ± 853 | 1580 ± 851 | 632 ± 244 | 318 ± 111 | 3.97 ± 0.8 | 4.66 ± 0.52 | 12.6 ± 6 | 0.15 ± 0.05 | 12 | 5 | – | – | –
5 | CC1(C)[C@@H](O[C@H]2O[C@H](C(=O)O)[C@@H](O)[C@H](O)[C@H]2O[C@@H]2O[C@H](C(=O)O)[C@@H](O)[C@H](O)[C@H]2O)CC[C@]2(C)[C@H]3C(=O)C=C4[C@@H]5C[C@@](C)(C(=O)O)CC[C@]5(C)CC[C@@]4(C)[C@]3(C)CC[C@@H]12 [Glycyrrhizic acid, glycyrrhizic acid] | 156 ± 59.6 | 138 ± 57 | 18.6 ± 6.61 | 458 ± 321 | 10.1 ± 0.58 | 13.6 ± 5.72 | 19.8 ± 6.6 | 0.12 ± 0.05 | – | – | double peaks | – | –
6 | O=C(/C=C/c1ccc(O)cc1)c1ccc(O)cc1O [Isoliquiritigenin, isoliquiritigenin] | 185 ± 89.9 | 157 ± 76.7 | 33.6 ± 9.37 | 349 ± 195 | 5.98 ± 1.5 | 7.81 ± 3.39 | 23.4 ± 5.4 | 0.17 ± 0.12 | – | – | double peak | about 4 h | –
7 | CCC/C=C1\OC(=O)C2=C1CCC=C2 [Ligustilide, ligustilide] | 207 ± 58.5 | 194 ± 57.7 | 65 ± 42.2 | 326 ± 185 | 5.63 ± 2.32 | 7.47 ± 4.23 | 18.6 ± 7.8 | 0.17 ± 0.10 | ~18 | – | – | – | –
8 | O=C1C[C@@H](c2ccc(O)cc2)Oc2cc(O)ccc21 [Liquiritigenin, liquiritigenin] | 328 ± 198 | 286 ± 144 | 33.2 ± 12 | 386 ± 145 | 8.85 ± 1.09 | 11.5 ± 3.02 | 11.4 ± 4.2 | 0.12 ± 0.06 | – | – | double peak | about 4 h | –
9 | O=C1C[C@@H](c2ccc(O[C@@H]3O[C@H](CO)[C@@H](O)[C@H](O)[C@H]3O)cc2)Oc2cc(O)ccc21 [Liquiritin, liquiritin] | 181 ± 90.9 | 163 ± 91.5 | 57.9 ± 36.6 | – | 5.7 ± 1.25 | 10.2 ± 6.79 | 23.4 ± 5.4 | 0.09 ± 0.04 | – | – | double peak | – | 9.32 ± 5.49
10 | C[C@@]12C[C@@]3(O)O[C@@H](O1)[C@]1(COC(=O)c4ccccc4)[C@H]3C[C@@]12O[C@@H]1O[C@H](CO)[C@@H](O)[C@H](O)[C@H]1O [Paeoniflorin, paeoniflorin] | 718 ± 227 | 697 ± 211 | 587 ± 181 | 289 ± 103 | 4.17 ± 1.38 | 4.91 ± 1.68 | 25.2 ± 5.4 | 0.16 ± 0.06 | – | – | – | – | –
11 | O=c1c(O)c(-c2ccc(O)c(O)c2)oc2cc(O)cc(O)c12 [Quercetin, quercetin] | 782 ± 415 | 766 ± 410 | 491 ± 168 | 245 ± 74.4 | 6.4 ± 0.85 | 7.03 ± 1.02 | 6 ± 1.8 | 0.19 ± 0.07 | 6 | – | – | ~8 h | –
12 | C[C@H]1O[C@@H](O[C@H]2CC[C@@]3(C)[C@@H](CC[C@]4(C)[C@@H]3C=C[C@]35OC[C@@]6(CCC(C)(C)C[C@H]63)[C@@H](O)C[C@]54C)[C@]2(C)CO)[C@H](O)[C@@H](O[C@@H]2O[C@H](CO)[C@@H](O)[C@H](O)[C@H]2O)[C@H]1O [Saikosaponin a, saikosaponin a] | 18 ± 6.88 | 16.3 ± 5.15 | 6.05 ± 1.3 | 388 ± 154 | 6.61 ± 1.12 | 8.88 ± 3.49 | 25.2 ± 5.4 | 0.12 ± 0.03 | – | – | double peaks | – | –
13 | C[C@@H]1O[C@@H](O[C@H]2[C@H](O)[C@@H](O)[C@H](O[C@H]3CC[C@]4(C)[C@H]5C=C[C@]67OC[C@@]8(CCC(C)(C)C[C@H]86)[C@@H](O)C[C@@]7(C)[C@]5(C)CC[C@H]4C3(C)C)O[C@@H]2CO[C@@H]2O[C@H](CO)[C@@H](O)[C@H](O)[C@H]2O)[C@H](O)[C@H](O)[C@H]1O [Saikosaponin c, saikosaponin c] | 5.93 ± 2.19 | 5.61 ± 1.92 | 0.96 ± 0.33 | 254 ± 170 | 6.49 ± 1.17 | 7.67 ± 2.7 | 25.2 ± 5.4 | 0.22 ± 0.11 | – | – | double peaks | – | –
14 | CCC/C=C1\OC(=O)C2=C1CC[C@H](O)[C@H]2O [Senkyunolide I, senkyunolide I] | 1620 ± 967 | 1580 ± 986 | 403 ± 201 | 285 ± 167 | 5.31 ± 0.72 | 6.37 ± 2.39 | 21.6 ± 7.8 | 0.18 ± 0.07 | – | – | – | – | –
